Results on 13 compounds are retold here after patent US8163921B2, “Hepatitis C virus inhibitors” (Bristol-Myers Squibb Company, priority 2008, dated 2012).

Read-outs that look alike come from different tables or passages of the source.

Assay [1] has as its target T1, HCV NS3/4A protease complex, BMS strain (UniProt P27958, C1454S/C1711G, species not given).
T1 construct: other: HCV NS3/4A enzyme assay; class symbols; numeric values; fused on or other part: three-lysine solubilising tail at the C-terminus of NS4A; purified on Ni-NTA from the pET21b vector (His tag implied)
The experiment in a line: FRET peptide assay to monitor HCV NS3/4A proteolytic activity (BMS strain). The class given is biochemical, HCV genotype 1a. Particulars: read-out: IC50 Range, HCV NS3/4A enzyme assay. An excerpt: HCV NS3 protease complexes, derived from the BMS strain, H77 strain or J4L6S strain, were generated, as described below. These purified recombinant proteins were generated for use in a homogeneous assay (see below) to provide an indication of how effective compounds of the present disclosure would be in inhibiting HCV NS3 proteolytic activity.
Serum from an HCV-infected patient was obtained from Dr. T. Wright, San Francisco Hospital. An engineered full-length cDNA (compliment deoxyribonucleic acid) template of the HCV genome (BMS strain) was constructed from DNA fragments obtained by reverse transcription-PCR (RT-PCR) of serum RNA (ribonucleic acid) and using primers selected on the basis of homology between other genotype 1a strains. From the determination of the entire genome sequence, a genotype 1a was assigned to the HCV isolate according to the classification of Simmonds et al. (See P Simmonds, K A Rose, S Graham, S W Chan, F McOmish, B C Dow, E A Follett, P L Yap and H Marsden, J. Clin. Microbiol., 31(6), 1493-1503 (1993)). […] The infectious clones, H77 (1a genotype) and J4L6S (1b genotype) were obtained from R. Purcell (NIH) and the sequences are published in Genbank (AAB67036, see Yanagi, M., Purcell, R. H., Emerson, S. U. and Buldi, J. Proc. Natl. Acad. Sci. U.S.A. 94(16),8738-8743 (1997); AF054247, see Yanagi, M., St Claire, M., Shapiro, M., Emerson, S. U., Purcell, R. H. and Bukh, J, Virology 244 (1), 161-172. (1998)).
NS3/4A protease complex-containing fractions were pooled and loaded on a desalting column Superdex-S200 pre-equilibrated with buffer D (25 mM HEPES, pH 7.5, 20% glycerol, 300 mM NaCl, 0.2% TritonX-100, 10 mM βMB). Sample was loaded at a flow rate of 1 mL/min. NS3/4A protease complex-containing fractions were pooled and concentrated to approximately 0.5 mg/ml. The purity of the NS3/4A protease complexes, derived from the BMS, H77 and J4L6S strains, were judged to be greater than 90% by SDS-PAGE and mass spectrometry analyses. The enzyme was stored at −80° C., thawed on ice and diluted prior to use in assay buffer.
The purpose of this in vitro assay was to measure the inhibition of HCV NS3 protease complexes, derived from the BMS strain, H77 strain or J4L6S strain, as described above, by compounds of the present disclosure. This assay provides an indication of how effective compounds of the present disclosure would be in inhibiting HCV NS3 proteolytic activity.
In order to monitor HCV NS3/4A protease activity, an NS3/4A peptide substrate was used. The substrate was RET S1 (Resonance Energy Transfer Depsipeptide Substrate; AnaSpec, Inc. cat #22991)(FRET peptide), described by Taliani et al. in Anal. Biochem. 240(2):60-67 (1996). The sequence of this peptide is loosely based on the NS4A/NS4B natural cleavage site for the HCV NS3 protease except there is an ester linkage rather than an amide bond at the cleavage site. The peptide also contains a fluorescence donor, EDANS, near one end of the peptide and an acceptor, DABCYL, near the other end. The fluorescence of the peptide is quenched by […] resonance energy transfer (RET) between the donor and the acceptor, but as the NS3 protease cleaves the peptide the products are released from RET quenching and the fluorescence of the donor becomes apparent.
The peptide substrate was incubated with one of the three recombinant NS3/4A protease complexes, in the absence or presence of a compound of the present disclosure. The inhibitory effects of a compound were determined by monitoring the formation of fluorescent reaction product in real time using a Cytofluor Series 4000.
Assay buffer: 50 mM HEPES, pH 7.5; 0.15 M NaCl; 0.1% Triton; 15% Glycerol; 10 mM βME. Substrate: 2 μM final concentration (from a 2 mM stock solution in DMSO stored at −20° C.). HCV NS3/4A protease type 1a (1b), 2-3 nM final concentration (from a 5 μM stock solution in 25 mM HEPES, pH 7.5, 20% glycerol, 300 mM NaCl, 0.2% Triton-X100, 10 mM βME). […]

Assay [2] deals with HCV replicon in HUH-7 cells. Briefly: HCV replicon FRET assay. Particulars: Hepatitis C virus. The class given is cell-based, HCV strain 1b. An excerpt: An HCV replicon whole cell system was established as described by Lohmann V, Korner F, Koch J, Herian U, Theilmann L, Bartenschlager R., Science 285(5424):110-3 (1999). This system enabled us to evaluate the effects of our HCV Protease compounds on HCV RNA replication. Briefly, using the HCV strain 1b sequence described in the Lohmann paper (Assession number:AJ238799), an HCV cDNA was synthesized by Operon Technologies, Inc. (Alameda, Calif.), and the full-length replicon was then assembled in plasmid pGem9zf(+) (Promega, Madison, Wis.) using standard molecular biology techniques. The replicon consists of (i) the HCV 5′ UTR fused to the first 12 amino acids of the capsid protein, (ii) the neomycin phosphotransferase gene (neo), (iii) the IRES from encephalomyocarditis virus (EMCV), and (iv) HCV NS3 to NS5B genes and the HCV 3′ UTR. Plasmid DNAs were linearized with ScaI and RNA transcripts were synthesized in vitro using the T7 MegaScript transcription kit (Ambion, Austin, Tex.) according to manufacturer's directions. In vitro transcripts of the eDNA were transfected into the human hepatoma cell line, HUH-7. […] Resulting cell lines were characterized for positive and negative strand RNA production and protein production over time.
The HCV replicon FRET assay was developed to monitor the inhibitory effects of compounds described in the disclosure on HCV viral replication. HUH-7 cells, constitutively expressing the HCV replicon, were grown in Dulbecco's Modified Eagle Media (DMEM) (Gibco-BRL) containing 10% Fetal calf serum (FCS) (Sigma) and 1 mg/ml G418 (Gibco-BRL). Cells were seeded the night before (1.5×10^4 cells/well) in 96-well tissue-culture sterile plates. Compound and no compound controls were prepared in DMEM containing 4% FCS, 1:100 Penicillin/Streptomysin (Gibco-BRL), 1:100 L-glutamine and 5% DMSO in the dilution plate (0.5% DMSO final concentration in the assay). Compound/DMSO mixes were added to the cells and incubated for 4 days at 37° C. After 4 days, cells were first assessed for cytotoxicity using alamar Blue (Trek Diagnotstic Systems) for a CC50 reading. The toxicity of compound (CC50) was determined by adding 1/10th volume of alamar Blue to the media incubating the cells. After 4 h, the fluorescence signal from each well was read, with an excitation wavelength at 530 nm and an emission wavelength of 580 nm, using the Cytofluor Series 4000 (Perspective Biosystems). Plates were then rinsed thoroughly with Phosphate-Buffered Saline (PBS) (3 times 150 μl).
On the technique in general: In antiviral work, replicon cells carry a viral genome segment that copies itself.

For orientation: IC50 means the concentration at which inhibition is half-maximal. As a reminder, the EC50 is the concentration at which the effect is half-maximal. As for `C=C[C@@H]1C[C@]1(NC(=O)[C@@H]1C[C@@H](Oc2ncc(OC)c3ccc(Cl)cc23)CN1C(=O)C(Nc1ccc(-c2ccccc2)c(OC)c1)C(C)(C)C)C(=O)NS(=O)(=O)C1CC1` (single isomer, unassigned) [Example 18A], the IC50 in assay [1] (numeric values) was determined as 0.054 µM. For the same compound, the 50% effective concentration (EC50) in assay [2] (Huh-7, HCV replicon cell assay, numeric values, read-out: EC50 Range) was determined as 0.0781 µM.
For `C=C[C@@H]1C[C@]1(NC(=O)[C@@H]1C[C@@H](Oc2cc(-c3ccccc3)nc3cc(OC)ccc23)CN1C(=O)[C@@H](Nc1nc(-c2ccccc2)cs1)C(C)(C)C)C(=O)NS(=O)(=O)C1CC1` [Example 1], the concentration for half-maximal inhibition (IC50) in assay [1] (class symbols) was 0.001 to 0.02 µM. For the same compound, the EC50 in assay [2] (Huh-7, read-out: EC50 Range) was 0.001 to 0.05 µM.
For `C=C[C@@H]1C[C@]1(NC(=O)[C@@H]1C[C@@H](Oc2cc(-c3ccccc3)nc3cc(OC)ccc23)CN1C(=O)[C@@H](Nc1nc(-c2ccccc2OC)cs1)C(C)(C)C)C(=O)NS(=O)(=O)C1CC1` [Example 2] the same measures were 0.001 to 0.02 µM and 0.001 to 0.05 µM.
In the same order, the values of `C=C[C@@H]1C[C@]1(NC(=O)[C@@H]1C[C@@H](Oc2cc(-c3ccccc3)nc3cc(OC)ccc23)CN1C(=O)[C@@H](Nc1nc(-c2cccc(OC)c2)cs1)C(C)(C)C)C(=O)NS(=O)(=O)C1CC1` [Example 3] are 0.001 to 0.02 µM and 0.001 to 0.05 µM.
Consider `C=C[C@@H]1C[C@]1(NC(=O)[C@@H]1C[C@@H](Oc2cc(-c3ccccc3)nc3cc(OC)ccc23)CN1C(=O)[C@@H](Nc1nc(-c2ccc(OC)cc2)cs1)C(C)(C)C)C(=O)NS(=O)(=O)C1CC1` [Example 4], for which the half-maximal inhibitory concentration (IC50) in assay [1] (class symbols) is 0.001 to 0.02 µM. The 50% effective concentration (EC50) in assay [2] (Huh-7, read-out: EC50 Range) lay in the range of 0.001 to 0.05 µM.
Take `C=C[C@@H]1C[C@]1(NC(=O)[C@@H]1C[C@@H](Oc2cc(-c3ccccc3)nc3cc(OC)ccc23)CN1C(=O)[C@@H](Nc1nc(-c2ccc(F)cc2)cs1)C(C)(C)C)C(=O)NS(=O)(=O)C1CC1` [Example 5]: in assay [1] (class symbols), the IC50 is 0.001 to 0.02 µM. Besides, the half-maximal effective concentration (EC50) in assay [2] (Huh-7, read-out: EC50 Range) is 0.001 to 0.05 µM.
For the compound `C=C[C@@H]1C[C@]1(NC(=O)[C@@H]1C[C@@H](Oc2ncc(OC)c3ccc(Cl)cc23)CN1C(=O)[C@@H](Nc1nc(-c2cc(-c3ccc(Cl)cc3)no2)cs1)C(C)(C)C)C(=O)NS(=O)(=O)C1CC1` [Example 88], the IC50 in assay [1] (class symbols) was 0.001 to 0.02 µM.
On the same count and under the same terms, the same measure for `C=C[C@@H]1C[C@]1(NC(=O)[C@@H]1C[C@@H](Oc2ncc(OC)c3ccc(Cl)cc23)CN1C(=O)[C@@H](Nc1nc(-c2ccc(S(C)(=O)=O)cc2)cs1)C(C)(C)C)C(=O)NS(=O)(=O)C1CC1` [Example 89]: 0.001 to 0.02 µM; for `C=C[C@@H]1C[C@]1(NC(=O)[C@@H]1C[C@@H](Oc2ncc(OC)c3ccc(Cl)cc23)CN1C(=O)[C@@H](Nc1nc(-c2sccc2Cl)cs1)C(C)(C)C)C(=O)NS(=O)(=O)C1CC1` [Example 90]: 0.001 to 0.02 µM; for `C=C[C@@H]1C[C@]1(NC(=O)[C@@H]1C[C@@H](Oc2ncc(OC)c3ccc(Cl)cc23)CN1C(=O)[C@@H](Nc1nc(-c2ccc(Oc3ccccc3)cc2)cs1)C(C)(C)C)C(=O)NS(=O)(=O)C1CC1` [Example 91]: 0.001 to 0.02 µM.
On to `C=C[C@@H]1C[C@]1(NC(=O)[C@@H]1C[C@@H](Oc2ncc(OC)c3ccc(Cl)cc23)CN1C(=O)[C@@H](Nc1nc(-c2cccc(C(F)(F)F)c2)cs1)C(C)(C)C)C(=O)NS(=O)(=O)C1CC1` [Example 94], for which the IC50 in assay [1] (class symbols) lay in the range of 0.001 to 0.02 µM.
On to `C=C[C@@H]1C[C@]1(NC(=O)[C@@H]1C[C@@H](Oc2ncc(OC)c3ccc(Cl)cc23)CN1C(=O)[C@@H](Nc1nc(-c2ccccc2C(F)(F)F)cs1)C(C)(C)C)C(=O)NS(=O)(=O)C1CC1` [Example 95], for which the IC50 in assay [1] (numeric values) was 0.017 µM.
As for `C=C[C@@H]1C[C@]1(NC(=O)[C@@H]1C[C@@H](Oc2ncc(OC)c3ccc(Cl)cc23)CN1C(=O)[C@@H](Nc1nc(-c2nc3ccccc3s2)cs1)C(C)(C)C)C(=O)NS(=O)(=O)C1CC1` [Example 96], the IC50 in assay [1] (class symbols) fell in the range of 0.001 to 0.02 µM.
